Test results as given in publication PMC2882941 (Pharmaceutical research, 2009).

Biological target: T1, hASBT (Homo sapiens, UniProt Q12908)
T1 sequence (Q12908 1-348): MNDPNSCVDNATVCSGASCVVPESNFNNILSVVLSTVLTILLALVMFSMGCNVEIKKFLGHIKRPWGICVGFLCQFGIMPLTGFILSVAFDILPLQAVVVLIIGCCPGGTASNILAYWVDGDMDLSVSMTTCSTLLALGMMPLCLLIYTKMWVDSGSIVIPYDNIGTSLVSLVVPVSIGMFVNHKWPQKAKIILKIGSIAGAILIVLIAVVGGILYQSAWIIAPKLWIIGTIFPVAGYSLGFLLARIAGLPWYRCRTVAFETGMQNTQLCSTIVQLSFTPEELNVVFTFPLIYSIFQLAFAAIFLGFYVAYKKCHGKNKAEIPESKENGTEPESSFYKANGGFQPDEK
Assay: in vitro
Settings: MDCK

SMILES: C[C@H](CCC(=O)NCCS(=O)(=O)O)[C@H]1CC[C@H]2[C@@H]3[C@H](O)C[C@@H]4C[C@H](O)CC[C@]4(C)[C@H]3C[C@H](O)[C@]12C [TCA, Taurocholate]
- Papp: 0.089 to 0.3 ×10⁻⁶ cm/s
